Test results: US8906868B2, “Aminoglycoside derivatives” (Rempex Pharmaceuticals, Inc., priority 2010, dated 2014)

Assays:
ECM6006 aph(3′)-III = test: microbe, parasite or virus in culture; type: cell-based, Escherichia coli
Procedure, shortened: (§1)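 CLSI broth microdilution; CaMHB; 2-fold dilutions; 5×10^5 CFU/ml; 18 h, 35° C; OD600 turbidity plus visual check for MIC.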

ECM6009 aac(3)-II = test: microbe, parasite or virus in culture; type: cell-based, Escherichia coli
Procedure, shortened: as §1

ECM6010 ant(2″)-I = test: microbe, parasite or virus in culture; type: cell-based, Escherichia coli
Procedure, shortened: as §1

ECM6011 aph(3′)-I = test: microbe, parasite or virus in culture; type: cell-based, Escherichia coli
Procedure, shortened: as §1

ECM6003 rmtB = test: microbe, parasite or virus in culture; type: cell-based, Escherichia coli; settings: Table 3
Procedure, shortened: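 Broth microdilution per CLSI M7-A7 in cation-adjusted Mueller Hinton broth with 2-fold serial dilutions and 5×10^5 CFU/ml inoculum. Incubated 18 hours at 35 °C; MIC read by turbidity at 600 nm and confirmed visually.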

EC1002 aph(3′)-IV = test: organism not typed; type: cell-based
Procedure, shortened: as §1

EC1001 acc(6′)-Ib = test: microbe, parasite or virus in culture; type: cell-based, Escherichia coli; settings: Table 4
Procedure, shortened: (§2)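 CLSI broth microdilution in CaMHB; 2-fold serial dilutions; 5×10^5 CFU/ml final inoculum; 18 h, 35° C; OD600 turbidity plus visual check.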

[1] = system: ECM6007 aac(6′) + aph(2″); test: microbe, parasite or virus in culture; type: cell-based, Escherichia coli; settings: Table 4
Procedure, shortened: as §2

ACM1005 ATCC 19004 = test: MIC, broth microdilution; type: cell-based, Acinetobacter baumannii; settings: Table 4
Procedure, shortened: as §2

ACM1006 acc(6′)-Ib = test: microbe, parasite or virus in culture; type: cell-based, Acinetobacter baumannii; settings: Table 4
Procedure, shortened: as §2

PAM3072 aac(6′)-II = test: microbe, parasite or virus in culture; type: cell-based, Pseudomonas aeruginosa; settings: Table 5
Procedure, shortened: as §2

PAM3073 aac(6′)-I = test: microbe, parasite or virus in culture; type: cell-based, Pseudomonas aeruginosa; settings: Table 5
Procedure, shortened: as §2

Sa 287 aac(6′) + aph(2″) = test: microbe, parasite or virus in culture; type: cell-based, Staphylococcus aureus; settings: Table 5
Procedure, shortened: as §2

[2] = system: Human kidney cortex proximal tubule cells (HK-2); test: Aminoglycoside cytotoxicity in HK-2 cells (Alamar Blue); type: cell-based; settings: HK-2 cells, 50% decrease in Alamar Blue signal; read-out: IC50 @ 24 hrs
Protocol: (§3) Human kidney cortex proximal tubule cells (HK-2) were purchased from ATCC and maintained according to manufacturer's recommendations in Keratinocyte Serum-Free Media (SFM; Invitrogen), with 0.05 mg/ml bovine pituitary extract and 5 ng/ml of Epidermal growth factor.
(§4) Solutions of aminoglycosides at a concentration of 50 mg/mL (both control and novel test compounds) were prepared in sterile deionized water. Before treatment of cells, the concentrated drug solutions were diluted to the appropriate concentration in Keratinocyte SFM {20, 10, 5, 2.5, 1.25, 0.6, 0.3, and 0 mM}. Pentamidine was used as a positive control.
(§5) HK-2 cells were seeded at 2.5*10^4 cells/well density in 96-well plates in Keratinocyte SFM and placed in a 37° C. tissue culture CO2 incubator. […]. Each treatment was performed in duplicate. […] Drug solutions were aspirated and replaced with 0.1 ml of 5% Alamar Blue (Abd Serotec) cell proliferation reagent in Keratinocyte SFM. Plates were read on a Molecular Devices Gemini EM fluorometer pre-warmed at 37° C. at […]. Plates were read at 0 and 4 hrs, and were incubated at 37° C. in a CO2 incubator in between reads. The fluorescence signal at the 0 h timepoint was subtracted from that at 4 h to account for background fluorescence.
(§6) The cytotoxicity data were reported as the amount of drug producing a 50% decrease in Alamar Blue signal relative to the no drug treatment control.

[3] = system: Escherichia coli (ATCC 25922); test: MIC, broth microdilution
[4] = system: Staphylococcus aureus (ATCC 29213); test: MIC, broth microdilution
[5] = system: Klebsiella pneumonia (ATCC 43816); test: MIC, broth microdilution; settings: QC strain, Table 2
[6] = system: Pseudomonas aeruginosa (ATCC 27853); test: MIC, broth microdilution
[7] = system: Acinetobacter baumannii (ATCC 19606); test: MIC, broth microdilution; settings: QC strain, Table 2
[8] = Aminoglycoside cytotoxicity in HK-2 cells (Alamar Blue); type: cell-based, Human; settings: human
Protocol: as §3, §4, §5, §6

In the case of Gentamicin [reference compound], the “Compound MIC on Bacterial Strains: ECM6006 aph(3′)-III” value (ECM6006 aph(3′)-III) is reported as “B (key: A: MIC of 1 μg/ml or less; B: MIC of greater than 1 μg/ml to 8 μg/ml; MIC of greater than 8 μg/ml)”, the “Compound MIC on Bacterial Strains: ECM6009 aac(3)-II” value (ECM6009 aac(3)-II) is reported as “C (key: A: MIC of 1 μg/ml or less; B: MIC of greater than 1 μg/ml to 8 μg/ml; MIC of greater than 8 μg/ml)” and the “Compound MIC on Bacterial Strains: ECM6010 ant(2″)-I” value (ECM6010 ant(2″)-I) is reported as “C (key: A: MIC of 1 μg/ml or less; B: MIC of greater than 1 μg/ml to 8 μg/ml; MIC of greater than 8 μg/ml)”. The “Compound MIC on Bacterial Strains: ECM6011 aph(3′)-I” value (ECM6011 aph(3′)-I) was “B (key: A: MIC of 1 μg/ml or less; B: MIC of greater than 1 μg/ml to 8 μg/ml; MIC of greater than 8 μg/ml)”, the “Compound MIC on Bacterial Strains: ECM6003 rmtB” value (ECM6003 rmtB) was “C (MIC of greater than 8 μg/ml)” and the “Compound MIC on Bacterial Strains: EC1002 aph(3′)-IV” value (EC1002 aph(3′)-IV) was “B (key: A: MIC of 1 μg/ml or less; B: MIC of greater than 1 μg/ml to 8 μg/ml; MIC of greater than 8 μg/ml)”. The “Compound MIC on Bacterial Strains: Escherichia coli EC1001 acc(6′)-Ib” value (EC1001 acc(6′)-Ib) was “B (MIC of greater than 1 μg/ml to 8 μg/ml)”, the “Compound MIC on Bacterial Strains: Escherichia coli ECM6007 aac(6′) + aph(2″)” value [1] was “B (MIC of greater than 1 μg/ml to 8 μg/ml)” and the “Compound MIC on Bacterial Strains: Acinetobacter baumannii ACM1005 ATCC 19004” value (ACM1005 ATCC 19004) was “A (MIC of 1 μg/ml or less)”. The “Compound MIC on Bacterial Strains: Acinetobacter baumannii ACM1006 acc(6′)-Ib” value (ACM1006 acc(6′)-Ib) was “B (MIC of greater than 1 μg/ml to 8 μg/ml)”, the “Compound MIC on Bacterial Strains: Pseudomonas aeruginosa PAM3072 aac(6′)-II” value (PAM3072 aac(6′)-II) was “C (MIC of greater than 8 μg/ml)” and the “Compound MIC on Bacterial Strains: Pseudomonas aeruginosa PAM3073 aac(6′)-I” value (PAM3073 aac(6′)-I) was “B (MIC of greater than 1 μg/ml to 8 μg/ml)”. The “Compound MIC on Bacterial Strains: Staphylococcus aureus Sa 287 aac(6′) + aph(2″)” value (Sa 287 aac(6′) + aph(2″)) was “C (MIC of greater than 8 μg/ml)”, the IC50 [2] was > 20 mM and the “Compound MIC on Bacterial Strains: E. coli ATCC 25922” value ([3]; QC strain, Table 2) was “A (MIC of 1 μg/ml or less)”. For the same molecule, the “Compound MIC on Bacterial Strains: ECM6000 ATCC 25922” value ([3]; Table 3) was “A (MIC of 1 μg/ml or less)”, the “Compound MIC on Bacterial Strains: Escherichia coli ECM6000 ATCC 25922” value ([3]; Table 4) was “A (MIC of 1 μg/ml or less)” and the “Compound MIC on Bacterial Strains: S. aureus ATCC 29213” value ([4]; QC strain, Table 2) was “A (MIC of 1 μg/ml or less)”. The “Compound MIC on Bacterial Strains: Staphylococcus aureus SAM1000 ATCC 29213” value ([4]; Table 5) was “A (MIC of 1 μg/ml or less)”, the “Compound MIC on Bacterial Strains: K. pneumonia ATCC 43816” value [5] was “A (MIC of 1 μg/ml or less)” and the “Compound MIC on Bacterial Strains: P. aeruginosa ATCC 27853” value ([6]; QC strain, Table 2) was “A (MIC of 1 μg/ml or less)”. For the same molecule, the “Compound MIC on Bacterial Strains: Pseudomonas aeruginosa PAM3034 ATCC 27853” value ([6]; Table 5) was “A (MIC of 1 μg/ml or less)” and the “Compound MIC on Bacterial Strains: A. baumannii ATCC 19606” value [7] was “C (MIC of greater than 8 μg/ml)”.

In the case of `NCC[C@H](O)C(=O)N[C@@H]1C[C@H](N)[C@@H](O[C@H]2O[C@H](CN)CC[C@H]2N)[C@H](O)[C@H]1O[C@H]1O[C@H](CO)[C@@H](O)[C@H](N)[C@H]1O` [Arbekacin, reference compound], the IC50 at 24 h [8] is reported as > 20 mM.
